In test [1] the target is T1, Mineralocorticoid receptor (Homo sapiens, UniProt P08235).
T1 sequence (P08235 whole entry): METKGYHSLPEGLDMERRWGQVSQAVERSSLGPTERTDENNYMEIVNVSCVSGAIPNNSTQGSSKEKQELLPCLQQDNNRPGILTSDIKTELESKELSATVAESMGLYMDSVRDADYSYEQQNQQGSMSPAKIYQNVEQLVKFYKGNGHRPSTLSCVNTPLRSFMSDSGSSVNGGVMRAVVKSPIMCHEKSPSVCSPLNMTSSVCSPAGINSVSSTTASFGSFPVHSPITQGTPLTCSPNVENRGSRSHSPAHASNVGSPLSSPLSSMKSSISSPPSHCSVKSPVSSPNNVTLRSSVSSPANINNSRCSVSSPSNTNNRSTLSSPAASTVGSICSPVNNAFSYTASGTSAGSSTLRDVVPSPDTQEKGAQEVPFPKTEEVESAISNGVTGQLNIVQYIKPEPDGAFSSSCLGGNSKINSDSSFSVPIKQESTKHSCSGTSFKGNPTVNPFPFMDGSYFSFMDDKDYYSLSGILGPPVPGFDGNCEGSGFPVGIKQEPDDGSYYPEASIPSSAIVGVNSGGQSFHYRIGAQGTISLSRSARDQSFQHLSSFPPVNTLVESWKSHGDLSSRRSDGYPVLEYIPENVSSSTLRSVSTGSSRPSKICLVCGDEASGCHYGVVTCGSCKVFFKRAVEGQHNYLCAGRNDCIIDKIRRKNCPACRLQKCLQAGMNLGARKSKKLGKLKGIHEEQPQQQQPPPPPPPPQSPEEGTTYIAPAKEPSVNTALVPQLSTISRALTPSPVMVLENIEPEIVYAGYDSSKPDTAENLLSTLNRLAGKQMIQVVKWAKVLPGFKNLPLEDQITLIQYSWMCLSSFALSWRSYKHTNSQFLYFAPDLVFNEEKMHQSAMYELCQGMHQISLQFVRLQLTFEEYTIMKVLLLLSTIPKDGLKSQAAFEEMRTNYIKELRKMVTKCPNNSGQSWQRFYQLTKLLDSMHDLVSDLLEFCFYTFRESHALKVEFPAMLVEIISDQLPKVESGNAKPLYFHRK
The test can be described thus: Agonist activity at mineralocorticoid receptor (unknown origin) transfected in green monkey CV-1 cells co-transfected with NHR responsive luciferase reporter incubated for 18 hrs by luciferase assay. It counts as cell-based. On the technique in general: Reporter assays use an easily measured gene product as a stand-in for the process of interest.

The target of test [2] is T2, Bile acid receptor (Homo sapiens, UniProt Q96RI1).
T2 sequence (Q96RI1 whole entry): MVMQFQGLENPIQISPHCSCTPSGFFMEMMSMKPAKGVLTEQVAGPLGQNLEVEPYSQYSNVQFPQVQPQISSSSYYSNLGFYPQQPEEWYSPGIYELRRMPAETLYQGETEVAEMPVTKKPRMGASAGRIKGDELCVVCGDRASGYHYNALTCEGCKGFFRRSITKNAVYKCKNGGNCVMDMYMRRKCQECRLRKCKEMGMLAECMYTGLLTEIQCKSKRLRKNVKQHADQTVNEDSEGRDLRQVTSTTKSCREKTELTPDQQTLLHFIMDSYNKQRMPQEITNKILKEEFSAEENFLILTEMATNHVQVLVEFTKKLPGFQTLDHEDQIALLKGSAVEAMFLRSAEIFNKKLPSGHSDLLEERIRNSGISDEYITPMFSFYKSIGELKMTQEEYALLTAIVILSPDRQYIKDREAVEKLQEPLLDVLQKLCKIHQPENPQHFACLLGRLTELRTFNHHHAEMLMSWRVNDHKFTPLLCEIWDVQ
The test can be described thus: Agonist activity at FXR (unknown origin) transfected in human HepG2 cells incubated for 24 hrs by luciferase assay. It is filed as cell-based.

Test [3] concerns the target T3, Progesterone receptor (Homo sapiens, UniProt P06401).
T3 sequence (P06401 whole entry): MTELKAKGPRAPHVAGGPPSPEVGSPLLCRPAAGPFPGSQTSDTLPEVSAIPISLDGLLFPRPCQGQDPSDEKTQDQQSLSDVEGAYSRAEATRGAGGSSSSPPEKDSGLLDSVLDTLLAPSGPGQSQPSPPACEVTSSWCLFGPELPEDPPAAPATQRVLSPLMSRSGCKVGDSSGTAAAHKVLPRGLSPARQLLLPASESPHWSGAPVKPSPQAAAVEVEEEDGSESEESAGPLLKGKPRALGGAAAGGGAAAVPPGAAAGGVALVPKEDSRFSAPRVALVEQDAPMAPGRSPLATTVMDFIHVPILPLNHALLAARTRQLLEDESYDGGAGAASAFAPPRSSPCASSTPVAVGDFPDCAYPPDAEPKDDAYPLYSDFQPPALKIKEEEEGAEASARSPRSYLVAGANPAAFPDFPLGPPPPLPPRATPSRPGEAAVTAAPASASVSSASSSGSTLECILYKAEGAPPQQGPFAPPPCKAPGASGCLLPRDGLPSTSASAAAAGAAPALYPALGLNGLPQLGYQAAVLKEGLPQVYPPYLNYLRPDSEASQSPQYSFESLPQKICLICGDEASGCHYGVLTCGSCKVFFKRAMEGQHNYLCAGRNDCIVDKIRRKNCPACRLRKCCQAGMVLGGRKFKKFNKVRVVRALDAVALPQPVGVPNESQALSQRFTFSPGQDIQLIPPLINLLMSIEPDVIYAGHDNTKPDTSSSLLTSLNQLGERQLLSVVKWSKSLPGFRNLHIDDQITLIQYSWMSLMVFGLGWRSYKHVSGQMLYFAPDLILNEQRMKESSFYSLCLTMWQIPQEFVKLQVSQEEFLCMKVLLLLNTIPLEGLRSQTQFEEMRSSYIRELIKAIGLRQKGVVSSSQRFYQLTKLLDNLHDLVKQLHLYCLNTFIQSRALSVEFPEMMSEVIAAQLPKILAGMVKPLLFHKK
The test can be described thus: Agonist activity at progesterone receptor (unknown origin) transfected in green monkey CV-1 cells co-transfected with NHR responsive luciferase reporter incubated for 18 hrs by luciferase assay. It counts as cell-based.

In test [4] the target is T4, G-protein coupled bile acid receptor 1 (Homo sapiens, UniProt Q8TDU6).
T4 sequence (Q8TDU6 whole entry): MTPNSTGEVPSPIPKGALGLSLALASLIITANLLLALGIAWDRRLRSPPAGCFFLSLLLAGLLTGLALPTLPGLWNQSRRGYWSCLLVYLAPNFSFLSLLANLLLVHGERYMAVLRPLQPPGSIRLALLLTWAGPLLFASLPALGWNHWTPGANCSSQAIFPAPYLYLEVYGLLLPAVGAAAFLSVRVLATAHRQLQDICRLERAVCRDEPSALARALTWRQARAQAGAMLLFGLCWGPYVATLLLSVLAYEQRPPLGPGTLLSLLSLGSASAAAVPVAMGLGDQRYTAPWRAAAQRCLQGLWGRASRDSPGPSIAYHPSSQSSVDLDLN
The test can be described thus: Agonist activity at TGR5 in human NCI-H716 cells assessed as increase in intracellular cAMP level preincubated with compound for 60 mins followed by IBMX addition and measured after 24 hrs by HTR-FRET assay. It counts as functional, cell-based.

Test [5] concerns the target T5, Fatty acid-binding protein, liver (Homo sapiens, UniProt P07148).
T5 sequence (P07148 whole entry): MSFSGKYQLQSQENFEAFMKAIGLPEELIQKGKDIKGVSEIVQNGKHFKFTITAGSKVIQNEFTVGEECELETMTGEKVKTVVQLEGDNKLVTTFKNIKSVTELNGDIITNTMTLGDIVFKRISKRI
Nature of the test: Inhibition of FABP1 (unknown origin).

For `O=C(O)c1ccc(-c2ccc(OCc3c(-c4c(Cl)cccc4Cl)noc3C3CC3)cc2)cc1`, the EC50 – broadly, the concentration giving half of the maximal effect – in test [1] was more than 10 µM; in test [2], 0.132 µM; in test [3] it was more than 10 µM; in test [4] it was more than 10 µM. Moreover, the IC50 (usually the midpoint of a concentration-inhibition curve) in test [5] stood at 8.5 µM.

(Values after ChEMBL document CHEMBL6114960, “Discovery of First-in-Class FXR and HSD17B13 Dual Modulator for the Treatment of Metabolic Dysfunction-Associated Fatty Liver Disease” (J Med Chem, 2025).)
